In PubChem BioAssay (NCI):
Values joined by “and” are separate entries in the source; they are usually repeats but may differ in a detail not shown here. Equal entries are not always repeated.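 How tested: cells in 96-well plates exposed to compound for 48 hours at five concentrations. The concentration for 50% growth inhibition is given as GI50. TGI: concentration producing complete growth inhibition.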

Assays:
Assay in all cases: NCI-60 cell line screen, 48 h; in the data active = GI50 below about 0.43 µM; inactive = the rest
DU-145 prostate = system: DU-145 prostate
SK-MEL-28 melanoma = system: SK-MEL-28 melanoma
HOP-62 NSCLC = system: HOP-62 NSCLC
ACHN renal = system: ACHN renal
EKVX NSCLC = system: EKVX NSCLC
OVCAR-5 ovarian = system: OVCAR-5 ovarian
TK-10 renal = system: TK-10 renal
CCRF-CEM leukemia = system: CCRF-CEM leukemia
M14 melanoma = system: M14 melanoma
NCI-H23 lung = system: NCI-H23 lung
CAKI-1 renal = system: CAKI-1 renal
HT29 colon = system: HT29 colon
NCI-H522 lung = system: NCI-H522 lung
NCI/ADR-RES ovarian = system: NCI/ADR-RES ovarian
SW-620 colon = system: SW-620 colon
IGROV1 ovarian = system: IGROV1 ovarian
UO-31 renal = system: UO-31 renal
U251 CNS = system: U251 CNS
SK-MEL-2 melanoma = system: SK-MEL-2 melanoma
HL-60(TB) leukemia = system: HL-60(TB) leukemia
OVCAR-4 ovarian = system: OVCAR-4 ovarian
MCF7 breast = system: MCF7 breast
RXF 393 renal = system: RXF 393 renal
NCI-H226 lung = system: NCI-H226 lung
PC-3 prostate = system: PC-3 prostate
MDA-N = system: MDA-N
SF-268 CNS = system: SF-268 CNS
KM12 colon = system: KM12 colon
UACC-62 melanoma = system: UACC-62 melanoma
MDA-MB-231 breast = system: MDA-MB-231 breast
BT-549 breast = system: BT-549 breast
LOX IMVI melanoma = system: LOX IMVI melanoma
SR leukemia = system: SR leukemia
MDA-MB-435 = system: MDA-MB-435
A549 NSCLC = system: A549 NSCLC
SN12C renal = system: SN12C renal
SNB-19 CNS = system: SNB-19 CNS
A498 renal = system: A498 renal
HCC-2998 colon = system: HCC-2998 colon
T-47D breast = system: T-47D breast
HCT-116 colon = system: HCT-116 colon
HS 578T breast = system: HS 578T breast
MALME-3M melanoma = system: MALME-3M melanoma
K-562 leukemia = system: K-562 leukemia
SK-MEL-5 melanoma = system: SK-MEL-5 melanoma
HOP-92 NSCLC = system: HOP-92 NSCLC
SK-OV-3 ovarian = system: SK-OV-3 ovarian
OVCAR-8 ovarian = system: OVCAR-8 ovarian
SF-295 CNS = system: SF-295 CNS
HCT-15 colon = system: HCT-15 colon
UACC-257 melanoma = system: UACC-257 melanoma
786-0 renal = system: 786-0 renal
COLO 205 colon = system: COLO 205 colon
NCI-H460 lung = system: NCI-H460 lung
OVCAR-3 ovarian = system: OVCAR-3 ovarian
MOLT-4 leukemia = system: MOLT-4 leukemia
SNB-75 CNS = system: SNB-75 CNS
RPMI-8226 leukemia = system: RPMI-8226 leukemia
SF-539 CNS = system: SF-539 CNS

Oc1cccc(-c2cn3cc(Cl)ccc3n2)c1
> 100 µM: TGI (DU-145 prostate) | TGI (SK-MEL-28 melanoma) | TGI (HOP-62 NSCLC) | TGI (ACHN renal) | TGI (OVCAR-5 ovarian) | TGI (TK-10 renal) | TGI (M14 melanoma) | TGI (NCI-H23 lung) | TGI (CAKI-1 renal) | TGI (HT29 colon) | TGI (NCI/ADR-RES ovarian) | TGI (SW-620 colon) | TGI (IGROV1 ovarian) | TGI (UO-31 renal) | TGI (U251 CNS) | TGI (SK-MEL-2 melanoma) | TGI (OVCAR-4 ovarian) | TGI (MCF7 breast) | TGI (NCI-H226 lung) | TGI (PC-3 prostate) | TGI (MDA-N) | TGI (SF-268 CNS) | TGI (KM12 colon) | TGI (UACC-62 melanoma) | TGI (MDA-MB-231 breast) | TGI (BT-549 breast) | TGI (LOX IMVI melanoma) | TGI (SR leukemia) | TGI (MDA-MB-435) | TGI (A549 NSCLC) | TGI (SN12C renal) | TGI (SNB-19 CNS) | TGI (A498 renal) | TGI (HCC-2998 colon) | TGI (HCT-116 colon) | TGI (HS 578T breast) | TGI (MALME-3M melanoma) | TGI (K-562 leukemia) | TGI (HOP-92 NSCLC) | TGI (SK-OV-3 ovarian) | TGI (OVCAR-8 ovarian) | TGI (SF-295 CNS) | TGI (HCT-15 colon) | TGI (786-0 renal) | TGI (COLO 205 colon) | TGI (NCI-H460 lung) | TGI (OVCAR-3 ovarian) | TGI (MOLT-4 leukemia)
83.5 µM: TGI (EKVX NSCLC)
43.3 µM: TGI (NCI-H522 lung)
77.5 µM: TGI (UACC-257 melanoma)
35.9 µM: TGI (SK-MEL-5 melanoma)
48.2 µM: TGI (T-47D breast)
86 µM: TGI (RXF 393 renal)
81.5 µM: TGI (CCRF-CEM leukemia)
56.2 µM: TGI (HL-60(TB) leukemia)

CC(=O)OC1COC(n2c(N)c(C#N)c(-c3ccccc3)c(C#N)c2=S)C(OC(C)=O)C1OC(C)=O (stereo unspecified)
> 100 µM and 95.4 µM: TGI (SK-MEL-5 melanoma)
66 µM and 79.3 µM: TGI (A498 renal)
79 µM and 76.7 µM: TGI (LOX IMVI melanoma)
46.3 µM and 52.2 µM: TGI (SR leukemia)
93.6 µM and 61.2 µM: TGI (MDA-MB-435)
> 100 µM and 92.6 µM: TGI (HOP-92 NSCLC)
> 100 µM and 68.4 µM: TGI (SK-MEL-2 melanoma)
> 100 µM: TGI (DU-145 prostate) | TGI (SK-MEL-28 melanoma) | TGI (HOP-62 NSCLC) | TGI (ACHN renal) | TGI (EKVX NSCLC) | TGI (OVCAR-5 ovarian) | TGI (M14 melanoma) | TGI (NCI-H23 lung) | TGI (CAKI-1 renal) | TGI (HT29 colon) | TGI (NCI-H522 lung) | TGI (NCI/ADR-RES ovarian) | TGI (SW-620 colon) | TGI (IGROV1 ovarian) | TGI (U251 CNS) | TGI (OVCAR-4 ovarian) | TGI (MCF7 breast) | TGI (NCI-H226 lung) | TGI (PC-3 prostate) | TGI (SF-268 CNS) | TGI (KM12 colon) | TGI (UACC-62 melanoma) | TGI (SF-539 CNS) | TGI (MDA-MB-231 breast) | TGI (A549 NSCLC) | TGI (SN12C renal) | TGI (SNB-19 CNS) | TGI (T-47D breast) | TGI (HCT-116 colon) | TGI (HS 578T breast) | TGI (MALME-3M melanoma) | TGI (SK-OV-3 ovarian) | TGI (SF-295 CNS) | TGI (HCT-15 colon) | TGI (UACC-257 melanoma) | TGI (786-0 renal) | TGI (COLO 205 colon) | TGI (NCI-H460 lung)
88.2 µM and 88.3 µM: TGI (MDA-N)
54.3 µM and 75.4 µM: TGI (MOLT-4 leukemia)
inactive: GI50 (NCI-H23 lung) 33.1 µM and 73.2 µM | GI50 (NCI-H226 lung) 41.6 µM and 89.4 µM
> 100 µM and 97.3 µM: TGI (OVCAR-8 ovarian)
94 µM: TGI (TK-10 renal)
86.8 µM and > 100 µM: TGI (SNB-75 CNS)
> 100 µM and 67.8 µM: TGI (UO-31 renal)
83.1 µM and > 100 µM: TGI (RXF 393 renal)
58.7 µM and 68.3 µM: TGI (RPMI-8226 leukemia)
> 100 µM and 97.2 µM: TGI (OVCAR-3 ovarian)
90.1 µM and 56.9 µM: TGI (HCC-2998 colon)
67.7 µM and > 100 µM: TGI (CCRF-CEM leukemia)
71.8 µM and 62.9 µM: TGI (BT-549 breast)
44.8 µM: TGI (HL-60(TB) leukemia)
